Measured values reported in patent US12152038B2, “Vasopressin receptor antagonists and products and methods related thereto” (Neumora Therapeutics, Inc., priority 2017, dated 2024).

Each molecule was assayed against T1, human Arginine Vasopressin Receptor 1b (AVPR1b) (Homo sapiens, UniProt P47901) (assay: Vasopressin V1b receptor antagonist assay (FLIPR calcium, CHO-AVPR1b cells)).
T1 construct: expressed in transfected cells; host or cells: CHO (CHO-AVPR1b, kept under G418 selection)
T1 sequence (P47901 1-424): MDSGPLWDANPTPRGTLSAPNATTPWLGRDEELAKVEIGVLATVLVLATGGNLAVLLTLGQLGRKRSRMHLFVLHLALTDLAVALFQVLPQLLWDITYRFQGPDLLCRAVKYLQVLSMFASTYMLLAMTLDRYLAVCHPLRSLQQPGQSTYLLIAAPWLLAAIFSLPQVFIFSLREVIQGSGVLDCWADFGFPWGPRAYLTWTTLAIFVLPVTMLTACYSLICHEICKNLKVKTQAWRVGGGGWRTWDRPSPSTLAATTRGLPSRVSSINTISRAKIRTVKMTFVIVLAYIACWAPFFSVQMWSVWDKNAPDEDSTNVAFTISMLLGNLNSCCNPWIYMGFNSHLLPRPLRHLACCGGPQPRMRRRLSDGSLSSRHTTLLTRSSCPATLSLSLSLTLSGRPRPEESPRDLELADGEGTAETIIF
Type: cell-based
Procedure, shortened: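 CHO cells expressing human AVPR1b, loaded with Calcium-6 dye, were given compound (10-point, 1:3) for 15 min at 37 °C. Then AVP was added at its daily-determined EC80 in HBSS/HEPES. FLIPR fluorescence read for 3 min; antagonism seen as reduced AVP calcium response.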

Row | IC50 | Structure (SMILES)
1 | ≥ 1000 nM | O=C(N1CC2(C1)CN(c1cc(F)cc(F)n1)C2)N1CCOc2cc(Cl)ccc21 [1-51]
2 | ≥ 1000 nM | O=C(N1CC2(C1)CN(c1cccnc1)C2)N1CCOc2cc(Cl)ccc21 [1-72]
3 | ≥ 1000 nM | CC1COc2cc(Cl)ccc2N1C(=O)N1CC2(C1)CN(c1ccccn1)C2 (centres unmarked) [1-60]
4 | ≥ 1000 nM | Cc1cncc(N2CC3(CN(C(=O)N4c5ccc(Cl)cc5OCC4C)C3)C2)n1 (centres unmarked) [21-3]
5 | ≥ 1000 nM | O=C(N1CC2(C1)CN(c1ccc(F)c(F)n1)C2)N1CCOc2cc(Cl)ccc21 [1-49]
6 | ≥ 1000 nM | CC1COc2cc(F)ccc2N1C(=O)N1CC2(C1)CN(c1ccccn1)C2 (single isomer, unassigned) [1-66-B]
7 | ≥ 1000 nM | CC1COc2cc(Cl)ccc2N1C(=O)N1CC2(C1)CN(c1ccccn1)C2 (single isomer, unassigned) [1-60-B]
8 | ≥ 1000 nM | CC1COc2cc(Cl)ccc2N1C(=O)N1CC2(C1)CN(c1nn(C)c3ncccc13)C2 (single isomer, unassigned) [20-15-B]
9 | ≥ 1000 nM | COc1nccnc1N1CC2(CN(C(=O)N3CCOc4cc(Cl)ccc43)C2)C1 [1-43]
10 | ≥ 1000 nM | Cc1nc(N2CC3(CN(C(=O)N4CCOc5cc(Cl)ccc54)C3)C2)ccc1F [1-30]
11 | ≥ 1000 nM | COc1ccc2c(c1)OCC(C)N2C(=O)N1CC2(C1)CN(c1ccc(F)cn1)C2 (single isomer, unassigned) [1-59-B]
12 | ≥ 1000 nM | Cc1cnnc(N2CC3(CN(C(=O)N4c5ccc(Cl)cc5OCC4C)C3)C2)c1 (centres unmarked) [21-4]
13 | ≥ 1000 nM | O=C(N1CC2(C1)CN(c1cccnn1)C2)N1CCOc2cc(Cl)ccc21 [1-71]
14 | ≥ 1000 nM | CC1COc2cc(Cl)ccc2N1C(=O)N1CC2(C1)CN(c1ncncc1F)C2 (centres unmarked) [21-5]
15 | ≥ 1000 nM | CC1COc2cc(Cl)ccc2N1C(=O)N1CC2(C1)CN(c1cnccn1)C2 (single isomer, unassigned) [1-58-B]
16 | ≥ 1000 nM | Cc1cncc(N2CC3(CN(C(=O)N4CCOc5cc(Cl)ccc54)C3)C2)n1 [1-22]
17 | ≥ 1000 nM | O=C(N1CC2(C1)CN(c1ccc(F)cn1)C2)N1CCOc2cc(F)ccc21 [1-64]
18 | ≥ 1000 nM | CC1COc2cc(Cl)ccc2N1C(=O)N1CC2(C1)CN(c1ncc(F)cn1)C2 (single isomer, unassigned) [18-2-B]
19 | ≥ 1000 nM | Cc1cnc(N2CC3(CN(C(=O)N4CCOc5cc(Cl)ccc54)C3)C2)cn1 [1-20]
20 | ≥ 1000 nM | N#Cc1cccc(N2CC3(CN(C(=O)N4CCOc5cc(Cl)ccc54)C3)C2)n1 [1-39]
21 | ≥ 1000 nM | CCc1cnc(N2CC3(CN(C(=O)N4c5ccc(Cl)cc5OCC4C)C3)C2)nc1 (centres unmarked) [21-9]
22 | ≥ 1000 nM | CC1COc2cc(Cl)ccc2N1C(=O)N1CC2(C1)CN(c1noc3ccccc13)C2 (centres unmarked) [21-1, (6-(benzo[d]isoxazol-3-yl)-2,6-diazaspiro[3.3]heptan-2-yl)(7-chloro-3-methyl-2,3-dihydro-4H-benzo[b][1,4]oxazin-4-yl)methanone]

Row | IC50 | Structure (SMILES)
23 | ≥ 1000 nM | Cc1nccc(N2CC3(CN(C(=O)N4c5ccc(Cl)cc5OCC4C)C3)C2)n1 (centres unmarked) [21-8]
24 | ≥ 1000 nM | CCC1COc2cc(Cl)ccc2N1C(=O)N1CC2(C1)CN(c1ccc(F)cn1)C2 (single isomer, unassigned) [1-55-B]
25 | ≥ 1000 nM | Cc1cc(N2CC3(CN(C(=O)N4c5ccc(Cl)cc5OCC4C)C3)C2)ncn1 (centres unmarked) [21-11]
26 | ≥ 1000 nM | O=C(N1CC2(C1)CN(c1cccc(F)n1)C2)N1CCOc2cc(Cl)ccc21 [1-69]
27 | ≥ 1000 nM | CC1COc2cc(Cl)ccc2N1C(=O)N1CC2(C1)CN(c1cc(=O)n(C)cn1)C2 (single isomer, unassigned) [20-14-B]
28 | ≥ 1000 nM | CC1COc2cc(Cl)ccc2N1C(=O)N1CC2(C1)CN(c1ccc(F)cn1)C2 (single isomer, unassigned) [1-73-B]
29 | ≥ 1000 nM | CC1COc2cc(Cl)ccc2N1C(=O)N1CC2(C1)CN(c1ccc(F)cn1)C2 (single isomer, unassigned) [1-73-A]
30 | ≥ 1000 nM | O=C(N1CC2(C1)CN(c1cnc(F)cn1)C2)N1CCOc2cc(Cl)ccc21 [1-18]
31 | ≥ 1000 nM | O=C(N1CC2(C1)CN(c1cc(F)ccn1)C2)N1CCOc2cc(Cl)ccc21 [1-70]
32 | ≥ 1000 nM | CC1COc2cc(Cl)ccc2N1C(=O)N1CC2(C1)CN(c1ccncn1)C2 (centres unmarked) [21-6]
33 | ≥ 1000 nM | O=C(N1CC2(C1)CN(c1ccc(F)cn1)C2)N1CCC(O)c2cc(Cl)ccc21 (single isomer, unassigned) [13-1-B]
34 | ≥ 1000 nM | CC1COc2cc(F)ccc2N1C(=O)N1CC2(C1)CN(c1ncccc1F)C2 (single isomer, unassigned) [1-67-A]
35 | ≥ 1000 nM | N#Cc1ccnc(N2CC3(CN(C(=O)N4CCOc5cc(Cl)ccc54)C3)C2)c1 [1-53]
36 | ≥ 1000 nM | CC1COc2cc(F)ccc2N1C(=O)N1CC2(C1)CN(c1cnccn1)C2 (single isomer, unassigned) [1-65-B]
37 | ≥ 1000 nM | Cc1cc(F)nc(N2CC3(CN(C(=O)N4CCOc5cc(Cl)ccc54)C3)C2)c1 [1-45]
38 | ≥ 1000 nM | Cc1cccc(N2CC3(CN(C(=O)N4CCOc5cc(Cl)ccc54)C3)C2)n1 [1-3]
39 | ≥ 1000 nM | CC1COc2cc(Cl)ccc2N1C(=O)N1CC2(C1)CN(c1ncccc1C#N)C2 (centres unmarked) [21-2]
40 | ≥ 1000 nM | COc1ccc(N2CC3(CN(C(=O)N4CCOc5cc(Cl)ccc54)C3)C2)nc1 [1-68]
41 | ≥ 1000 nM | CC1COc2cc(Cl)ccc2N1C(=O)N1CC2(C1)CN(c1ncccc1F)C2 (single isomer, unassigned) [1-57-A]
42 | ≥ 1000 nM | CC1COc2cc(F)ccc2N1C(=O)N1CC2(C1)CN(c1ncccc1F)C2 (centres unmarked) [1-67]
43 | ≥ 1000 nM | Cc1cnc(N2CC3(CN(C(=O)N4c5ccc(Cl)cc5OCC4C)C3)C2)nc1 (single isomer, unassigned) [20-13-B]
44 | ≥ 1000 nM | CC1COc2cc(Cl)ccc2N1C(=O)N1CC2(C1)CN(c1nccc(C(F)(F)F)n1)C2 (centres unmarked) [21-10]
